Measurements reported in US12448388B2, “PRMT5 inhibitors and uses thereof” (Gilead Sciences, Inc., priority 2023, dated 2025).

Tested on: HCT116 MTAP-deleted cell lines
Assay: Cell viability assay (CellTiter-Glo, 7 days), HCT116 MTAP-deleted
Format: cell-based
Details: Homo sapiens, HCT-116; cell viability, HCT116 MTAP-deleted; class symbols; read-out: CC50
Procedure: Control compounds were analyzed in parallel each time for quality control. In Brief, on Day -1, a serial dilution of stock compounds in DMSO was performed using BioMek liquid handlers and dispensed using Echo acoustic dispenser into 384 well plates. Both tool compounds and sample compounds were spotted in the same plate for a dose response of PRMT5 inhibitors. Compound plates were stored as frozen until the cells were ready for seeding. […] After equilibrating the plate in room temperature, the cells were incubated for 7 days inside the sealed incubator set at 37° C. with 90% humidity and 5% CO2. On Day 7, the viability of cells was measured using a CTG assay kit (CellTitre-Glo;Promega cat no. G7573). Shortly, 40 μl per well of luminescent cell viability assay reagent were dispensed using EL460 liquid dispenser 5 μl cassette. CTG luminescence signal was measured using an EnVision plate reader (PerkinElmer) in accordance with manufacturer's instruction. […] Selectivity with * is artificially high due to limited solubility of the compound hampering accurate measurement of WT CC50.

Question: How did the CC50 turn out when `CC1(C)C[C@@H]2Oc3cc(C(F)(F)F)ccc3[C@@H]2N(C(=O)c2cc3c(cc2F)nc(N)c2cncn23)C1` (racemic) [Ff-257, Rac-(4-amino-7-fluoroimidazo[1,5-a]quinoxalin-8-yl)((4aR,9bR)-3,3-dimethyl-7-(trifluoromethyl)-3,4,4a,9b-tetrahydrobenzofuro[3,2-b]pyridin-1(2H)-yl)methanone] was run?
Answer: < 100 nM

Question: For `CC1(C)C[C@@H]2Oc3cc(C(F)(F)F)ccc3[C@@H]2N(C(=O)c2cc3c(cn2)nc(N)c2cncn23)C1` (racemic) [Ff-258, Rac-(4-aminoimidazo[1,5-a]pyrido[3,4-e]pyrazin-8-yl)((4aR,9bR)-3,3-dimethyl-7-(trifluoromethyl)-3,4,4a,9b-tetrahydrobenzofuro[3,2-b]pyridin-1(2H)-yl)methanone], which CC50 is on record?
Answer: < 100 nM

Question: For `CC1(C)C[C@@H]2Oc3cc(OC(F)(F)F)ccc3[C@@H]2N(C(=O)c2cc3c(cn2)nc(N)c2cncn23)C1` (racemic) [Ff-262, Rac-(4-aminoimidazo[1,5-a]pyrido[3,4-e]pyrazin-8-yl)((4aS,9bS)-3,3-dimethyl-7-(trifluoromethoxy)-3,4,4a,9b-tetrahydrobenzofuro[3,2-b]pyridin-1(2H)-yl)methanone], which CC50 is on record?
Answer: 100 to 1000 nM

Question: How did the CC50 turn out when `C[C@H]1OC[C@@H](N(C)C(=O)c2cc3c(cc2F)nc(N)c2cncn23)c2ccc(C(F)(F)F)cc21` (racemic) [Ff-283, Rac-4-amino-7-fluoro-N-methyl-N-((1R,4S)-1-methyl-7-(trifluoromethyl)isochroman-4-yl)imidazo[1,5-a]quinoxaline-8-carboxamide] was run?
Answer: < 100 nM

Question: With `C[C@H]1OC[C@@H](N(C)C(=O)c2cc3c(cc2Cl)nc(N)c2cncn23)c2ccc(C(F)(F)F)cc21` (racemic) [Ff-284, Rac-4-amino-7-chloro-N-methyl-N-((1R,4S)-1-methyl-7-(trifluoromethyl)isochroman-4-yl)imidazo[1,5-a]quinoxaline-8-carboxamide] as the compound, how does the CC50 read?
Answer: < 100 nM

Question: With `Nc1nc2cc(F)c(C(=O)N3CCC[C@@H]4OCc5cc(OC(F)F)ccc5[C@@H]43)cc2n2cncc12` (racemic) [Ff-287, Rac-(4-amino-7-fluoroimidazo[1,5-a]quinoxalin-8-yl)((4aS,10bS)-8-(difluoromethoxy)-2,3,4,4a,6,10b-hexahydro-1H-isochromeno[4,3-b]pyridin-1-yl)methanone] as the compound, how does the CC50 read?
Answer: < 100 nM

Question: For `Nc1nc2ccc(C(=O)N3CCC[C@@H]4OCc5cc(OC(F)F)ccc5[C@@H]43)cc2n2cncc12` (racemic) [Ff-288, Rac-(4-aminoimidazo[1,5-a]quinoxalin-8-yl)((4aS,10bS)-8-(difluoromethoxy)-2,3,4,4a,6,10b-hexahydro-1H-isochromeno[4,3-b]pyridin-1-yl)methanone], which CC50 is on record?
Answer: < 100 nM

Question: `Nc1nc2cc(F)c(C(=O)N3[C@@H](c4ccc(C(F)(F)F)cn4)CC[C@@H]4C[C@@H]43)cc2n2cncc12` (racemic) [Ff-293, Rac-(4-amino-7-fluoroimidazo[1,5-a]quinoxalin-8-yl)((1S,3R,6R)-3-(5-(trifluoromethyl)pyridin-2-yl)-2-azabicyclo[4.1.0]heptan-2-yl)methanone] was tested. Which CC50 did it give?
Answer: 100 to 1000 nM

Question: For `Nc1nc2cc(F)c(C(=O)N3CCC[C@@H]4OCc5cc(-c6ccn(C(F)(F)F)n6)ccc5[C@@H]43)cc2n2cncc12` (racemic) [Ff-294, Rac-(4-amino-7-fluoroimidazo[1,5-a]quinoxalin-8-yl)((4aS,10bS)-8-(1-(trifluoromethyl)-1H-pyrazol-3-yl)-2,3,4,4a,6,10b-hexahydro-1H-isochromeno[4,3-b]pyridin-1-yl)methanone], which CC50 is on record?
Answer: < 100 nM

Question: `Nc1nc2cc(F)c(C(=O)N3CCC[C@@H]4OCc5cc(-c6cnn(C(F)(F)F)c6)ccc5[C@@H]43)cc2n2cncc12` (racemic) [Ff-295, Rac-(4-amino-7-fluoroimidazo[1,5-a]quinoxalin-8-yl)((4aS,10bS)-8-(1-(trifluoromethyl)-1H-pyrazol-4-yl)-2,3,4,4a,6,10b-hexahydro-1H-isochromeno[4,3-b]pyridin-1-yl)methanone] was tested. Which CC50 did it give?
Answer: < 100 nM

Question: `Nc1nc2cc(F)c(C(=O)N3CCC[C@@H]4OCc5cc(-c6cnn(C(F)F)c6)ccc5[C@@H]43)cc2n2cncc12` (racemic) [Ff-296, Rac-(4-amino-7-fluoroimidazo[1,5-a]quinoxalin-8-yl)((4aS,10bS)-8-(1-(difluoromethyl)-1H-pyrazol-4-yl)-2,3,4,4a,6,10b-hexahydro-1H-isochromeno[4,3-b]pyridin-1-yl)methanone] was tested. Which CC50 did it give?
Answer: < 100 nM

Question: With `Nc1nc2cc(F)c(C(=O)N3CCC[C@@H]4OCc5cc(-c6cnn(C7CC7)c6)ccc5[C@@H]43)cc2n2cncc12` (racemic) [Ff-297, Rac-(4-amino-7-fluoroimidazo[1,5-a]quinoxalin-8-yl)((4aS,10bS)-8-(1-cyclopropyl-1H-pyrazol-4-yl)-2,3,4,4a,6,10b-hexahydro-1H-isochromeno[4,3-b]pyridin-1-yl)methanone] as the compound, how does the CC50 read?
Answer: < 100 nM

Question: For `Nc1nc2cc(F)c(C(=O)N3CCC[C@@H]4OCc5cc(-c6ccn(C(F)F)n6)ccc5[C@@H]43)cc2n2cncc12` (racemic) [Ff-298, Rac-(4-amino-7-fluoroimidazo[1,5-a]quinoxalin-8-yl)((4aS,10bS)-8-(1-(difluoromethyl)-1H-pyrazol-3-yl)-2,3,4,4a,6,10b-hexahydro-1H-isochromeno[4,3-b]pyridin-1-yl)methanone], which CC50 is on record?
Answer: < 100 nM

Question: With `COc1ccc2c(c1F)CO[C@H]1CCCN(C(=O)c3cc4c(cc3F)nc(N)c3cncn34)[C@@H]21` (racemic) [Ff-299, Rac-(4-amino-7-fluoroimidazo[1,5-a]quinoxalin-8-yl)((4aS,10bS)-7-fluoro-8-methoxy-2,3,4,4a,6,10b-hexahydro-1H-isochromeno[4,3-b]pyridin-1-yl)methanone] as the compound, how does the CC50 read?
Answer: < 100 nM

Question: Which CC50 does the source give for `COc1cc2c(cc1F)[C@H]1[C@H](CCCN1C(=O)c1cc3c(cc1F)nc(N)c1cncn13)OC2` (racemic) [Ff-300, Rac-(4-amino-7-fluoroimidazo[1,5-a]quinoxalin-8-yl)((4aS,10bS)-9-fluoro-8-methoxy-2,3,4,4a,6,10b-hexahydro-1H-isochromeno[4,3-b]pyridin-1-yl)methanone] here?
Answer: < 100 nM

Question: Which CC50 does the source give for `Nc1nc2cc(F)c(C(=O)N3CCC[C@@H]4OCc5cc(C6CC6)ccc5[C@@H]43)cc2n2cncc12` (racemic) [Ff-301, Rac-(4-amino-7-fluoroimidazo[1,5-a]quinoxalin-8-yl)((4aS,10bS)-8-cyclopropyl-2,3,4,4a,6,10b-hexahydro-1H-isochromeno[4,3-b]pyridin-1-yl)methanone] here?
Answer: < 100 nM

Question: `Nc1nc2cc(F)c(C(=O)N3CCC[C@@H]4Cc5cc(C(F)(F)F)ccc5[C@@H]43)cc2n2cncc12` (racemic) [Ff-310, Rac-(4-amino-7-fluoroimidazo[1,5-a]quinoxalin-8-yl)((4aR,9bR)-7-(trifluoromethyl)-2,3,4,4a,5,9b-hexahydro-1H-indeno[1,2-b]pyridin-1-yl)methanone] was tested. Which CC50 did it give?
Answer: < 100 nM

Question: How did the CC50 turn out when `Nc1nc2cc(F)c(C(=O)N3CCC[C@@H]4Cc5nc(C(F)(F)F)ccc5[C@@H]43)cc2n2cncc12` (racemic) [Ff-314, Rac-(4-amino-7-fluoroimidazo[1,5-a]quinoxalin-8-yl)((4bR,8aR)-2-(trifluoromethyl)-4b,6,7,8,8a,9-hexahydro-5H-cyclopenta[1,2-b:3,4-b′]dipyridin-5-yl)methanone] was run?
Answer: < 100 nM

Question: With `C[C@@H]1C[C@@H]2CCc3cc(C(F)(F)F)ccc3[C@@H]2N(C(=O)c2cc3c(cc2F)nc(N)c2cncn23)C1` (racemic) [Ff-322, Rac-(4-amino-7-fluoroimidazo[1,5-a]quinoxalin-8-yl)((3R,4aS,10bR)-3-methyl-8-(trifluoromethyl)-3,4,4a,5,6,10b-hexahydrobenzo[h]quinolin-1(2H)-yl)methanone] as the compound, how does the CC50 read?
Answer: < 100 nM

Question: With `C[C@@H]1C[C@@H]2OCc3nc(C(F)(F)F)ccc3[C@@H]2N(C(=O)c2cc3c(cc2F)nc(N)c2cncn23)C1` (racemic) [Ff-323, Rac-(4-amino-7-fluoroimidazo[1,5-a]quinoxalin-8-yl)((3R,4aS,10bS)-3-methyl-8-(trifluoromethyl)-2,3,4,4a,6,10b-hexahydro-1H-pyrano[3,2-b:5,4-b′]dipyridin-1-yl)methanone] as the compound, how does the CC50 read?
Answer: < 100 nM

Question: `Nc1nc2cc(F)c(C(=O)N3CCC[C@@H]4Oc5cc(OC(F)(F)F)ccc5[C@@H]43)cc2n2cncc12` (racemic) [Ff-331, Rac-(4-amino-7-fluoroimidazo[1,5-a]quinoxalin-8-yl)((4aS,9bS)-7-(trifluoromethoxy)-3,4,4a,9b-tetrahydrobenzofuro[3,2-b]pyridin-1(2H)-yl)methanone] was tested. Which CC50 did it give?
Answer: < 100 nM

Question: For `Nc1nc2cc(F)c(C(=O)N3CCC[C@@H]4Oc5cc(OC(F)(F)F)c(F)cc5[C@@H]43)cc2n2cncc12` (racemic) [Ff-333, Rac-(4-amino-7-fluoroimidazo[1,5-a]quinoxalin-8-yl)((4aS,9bS)-8-fluoro-7-(trifluoromethoxy)-3,4,4a,9b-tetrahydrobenzofuro[3,2-b]pyridin-1(2H)-yl)methanone], which CC50 is on record?
Answer: < 100 nM

Question: For `Cc1ncc2c(N)nc3cc(Cl)c(C(=O)N4CCC[C@@H]5Oc6nc(C(F)(F)F)ccc6[C@@H]54)cc3n12` (racemic) [Ff-334, Rac-4-amino-7-chloro-1-methylimidazo[1,5-a]quinoxalin-8-yl)((4aS,9bS)-7-(trifluoromethyl)-3,4,4a,9b-tetrahydrofuro[2,3-b:4,5-b′]dipyridin-1(2H)-yl)methanone], which CC50 is on record?
Answer: < 100 nM

Question: `Nc1nc2cc(F)c(C(=O)N3CCC[C@@H]4Oc5c(ccc(Cl)c5F)[C@@H]43)cc2n2cncc12` (racemic) [Ff-335, Rac-((4-amino-7-fluoroimidazo[1,5-a]quinoxalin-8-yl)((4aS,9bS)-7-chloro-6-fluoro-3,4,4a,9b-tetrahydrobenzofuro[3,2-b]pyridin-1(2H)-yl)methanone] was tested. Which CC50 did it give?
Answer: < 100 nM
